# Residues, ends and D or L forms follow the SMILES beside them. *: point of attachment. Cbz = O=C(OCc1ccccc1)*; CH2F = FC*
# System: TNBC cells
# Assay: MTT cell viability assay, statements for both TNBC lines
# Assay type: cell-based, Human
# Details: Z-VAD-FMK 20 μM with compound 7a 20 μM, 48 h
# Method: Compounds were dissolved in a hydrous dimethylsulfoxide (DMSO, Life technologies) to obtain a 50 mM stock solution, which was then added to the culture medium at a concentration range of 6.25-100 μM. […] Z-VAD-FMK was purchased from Selleckchem (Houston, Tex.); The reagents including 3-(4,5-dimethylthiazol-2-yl)-2,5-diphenyltetrazolium bromide (MTT), dimethyl sulfoxide (DMSO), penicillin, streptomycin, propidium iodide (PI) were purchased from Sigma-Aldrich (MO, USA); All the primary antibodies used in this study were from Cell Signaling Technology (MA, USA) and the secondary antibodies were from LI-COR Biosciences (NE, USA).
# Human triple negative breast cancer cell lines MDA-MB-231 and MDA-MB-468 were purchased from the American Type Culture Collection (ATCC, VA, USA). These cells were cultured in high-glucose DMEM (Gibco, USA) supplemented with 10% fetal bovine serum (FBS, Gibco) and 1% penicillin/streptomycin (Gibco) at 37° C. in a humidified incubator containing 5% CO2.
# The antiproliferative activity of compounds was measured with the MTT assay. […] The absorbance value was determined at 570 nm using a microplate reader (Bio-Tek, VT, USA). Data were analyzed by GraphPad Prism 6. […]
smiles,measurement,value
"COC(=O)C[C@H](NC(=O)[C@H](C)NC(=O)[C@@H](NC(=O)OCc1ccccc1)C(C)C)C(=O)CF [Z-VAD-FMK, reference compound] (Cbz-Val-Ala-Asp(OMe)-CH2F)",rescue of compound 7a-induced apoptosis (cell viability),partially rescue cell apoptosis induced by compound 7a
